Like-named read-outs stand apart in the source and are kept apart here.
Legend:
[1] = biological target: rat brain opioid receptor; experiment: Competition with [125I]b-endorphin for binding to rat brain membranes (analytical microtiter plate assay)
Experimental: Whole male rat brains frozen in liquid N₂ are purchased from Pel-Freez (Rogers, AR). All procedures for membrane preparation are carried out at a temperature of 2-6 °C. The brains are homogenized in a Waring blender in a buffer containing 1 mM Na-bicarbonate (pH 7.2), 1 mM EDTA, 1 mM EGTA (all chemicals from Sigma Chemical, St. Louis, MO) and 0.7% (vol./vol.) of the 100X 4Pase protease inhibitor mixture (see "Protease Inhibitors" below). The ratio of tissue/homogenization medium is from 25-35 gm of brain/500 ml. The blender is controlled through a variable output rheostat (Staco Energy Products, Dayton, OH; type 3PN1010) at a setting of 40. The homogenate is centrifuged for 10 minutes at 1,000 x g pellet is rehomeginized in 500 ml of homogenization medium and recentrifuged for 10 minutes at 1,000 x g. The 1,000 x g pellet is discarded. The 1,000 x g supernatants are combined and centrifuged for 30 minutes at 20,000 x g. The 20,000 x g membrane pellet is washed by being resuspended with a Dounce homogenizer in 500 ml of homogenization medium supplemented with 10 mM EDTA (pH readjusted to 7.4) and then washed twice by being resuspended in 25 mM Tris buffer (Sigma Chemical Co.; pH 7.4) and centrifuged for 25 minutes at 20,000 x g. The final membrane pellet is resuspended in 25 mM inhibitor mixture to a protein concentration of 4-12 mg/ml. The resuspended membranes are aliquoted, frozen on dry ice and stored at -90 °C.
Binding of [¹²⁵I]-labelled b-endorphin, b-endorphin and other b-endorphin analogs and opioids is done in a binding buffer containing 50 mM HEPES (Sigma; pH 7.4; pHed with KOH), 0.1% (w/v) bovine serum albumin (Miles Laboratories, Elkhart, IN) and protease inhibitors as specified below for specific applications. All binding incubations are carried out at room temperature (20-23 °C). • A. Analytical - This assay is carried out in 96 well microtiter plates (Immulon II with snap-off wells; Dynatech, Chantille, VA). To carry out the assay, the following components are added to the wells in the order and volumes shown: (1) […] of nonlabelled ligand. For this purpose, ligands (for example b-endorphin or biotinylated b-endorphin) are made up at 40X the desired final concentration in the 40X P/B/Pz protease inhibitor mixture (Experimental Procedures. 4.C.) (2) […] of [¹²⁵I]b-endorphin in binding buffer + 1/100 volume of the 100X 4Pase protease inhibitor mixture; mix briefly on a microtiter plate shaker (Dynatech Micro-Shaker II, Dynatech, Chantilly, VA). (3) […] of rat brain membrane diluted in binding buffer + […] volume of 100X 4Pase to deliver […] of membrane protein per well. The plates are then covered with Linbro Mylar plate sealers (Flow Labs, McLean, VA) and incubated for 1 hour at room temperature (20-23 °C). The membranes are pelleted by centrifugation at 2,000 x g, the supernatants (containing nonbound ligands) are decanted and the pellets are washed by the addition of […] of ice cold binding buffer, brief shaking and recentrifugation. CPM of [¹²⁵I] in the final membrane pellets is then counted in a gamma counter (LKB Gammamaster 1277; 80% efficiency). • B. Preparative - Rat brain membranes are diluted to a concentration of 0.5 mg of membrane protein/ml in binding buffer containing 1/400 (vol./vol.) of the 400X P/B/Bz protease inhibitor mixture (see Section 4). […] In this case, the blocking ligand is added from 5-15 minutes prior to the addition of biotinyl-b-endorphin. In some cases only the blocking ligand is added. […]

[2] = biological target: T1, m-opiate receptor (mOR) cDNA RC8-1 expressed in COS cells (Rattus norvegicus, UniProt P33535); assay type: binding
T1 construct: expressed in transfected cells; host or cells: COS cells, transient electroporation with pcDNA1RC8-1; membranes
T1 sequence (P33535 whole entry): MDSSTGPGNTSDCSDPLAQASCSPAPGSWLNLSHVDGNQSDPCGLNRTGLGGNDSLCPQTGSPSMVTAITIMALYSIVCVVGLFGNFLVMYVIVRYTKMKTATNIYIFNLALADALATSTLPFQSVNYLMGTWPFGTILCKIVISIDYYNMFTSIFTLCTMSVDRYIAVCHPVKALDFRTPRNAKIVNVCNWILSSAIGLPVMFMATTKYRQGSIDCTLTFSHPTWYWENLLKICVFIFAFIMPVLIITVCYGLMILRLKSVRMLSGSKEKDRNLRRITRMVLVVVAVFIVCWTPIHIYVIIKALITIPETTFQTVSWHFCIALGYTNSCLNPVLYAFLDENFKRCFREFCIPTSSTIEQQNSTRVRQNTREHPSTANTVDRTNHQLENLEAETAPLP

[3] = system: [¹²⁵I]b-Endorphin: Opioid Receptor Complex; experiment: Dissociation of the solubilized R:L complex, measured by binding to WGA-agarose; assay type: biochemical, rat
[4] = biological target: T1, m-opiate receptor (mOR) cDNA RC8-1 expressed in COS cells; assay type: binding; remark: listed apart in the source
[5] = competition with [¹²⁵I]b-endorphin, rat brain membranes, read-out: IC₅₀s for reduction of radioligand binding by competition with cold ligand
[6] = reanalysis, F1 fraction heated at 50°C for 5 min, read-out: IC50 for binding to receptors in rat brain membranes by competition vs. [¹²⁵I]b-endorphin (reanalysis)

b-endorphin gave an IC50 [1, 5] of 1 nM and an IC50 [1, 6] of 1.2 nM.
NaCl was tested, and the “effect of addition to incubations on [³H]DAMGO binding” value [2] was “reduced”.
With “[biotinyl-Lys³²]b-endorphin [biotinyl-b-endorphin]” the IC50 [1, 6] was 1.8 nM.
“[biotinyl-Lys³²]b-endorphin [biotinyl-b-endorphin (F1)]” showed an IC50 [1, 5] of 1 nM.
For `Nc1nc2c(ncn2[C@@H]2O[C@H](COP(=O)(O)OP(=O)(O)OP(O)(O)=S)[C@@H](O)[C@H]2O)c(=O)[nH]1` [GTP-g-S], the “dissociation of receptor from ligand” value ([3]; GTP analog alone, without NaCl) was “about 30%”, the “% Decrease in R:L Complex” value ([3]; Table 1, 100 mM GTP-g-S, 10 minutes at room temperature) was 34% and the “% Decrease in R:L Complex” value ([3]; Table 2, 100 mM GTP-g-S + 25 mM NaCl) was 77%. For the same compound, the “% Decrease in R:L Complex” value ([3]; Table 2, 100 mM GTP-g-S + 50 mM NaCl) was 90%, the “% Decrease in R:L Complex” value ([3]; Table 2, 100 mM GTP-g-S + 100 mM NaCl) was 93% and the “% Decrease in R:L Complex” value ([3]; Table 2, 100 mM GTP-g-S alone) was 24%.
In the case of `CN1CC[C@]23c4c5ccc(O)c4O[C@H]2[C@@H](O)C=C[C@H]3[C@H]1C5` [Morphine], the “potency in displacing binding of [³H]DAMGO” value (shortened to “potency in displacing binding”) [4] is reported as “high potency”.
In the case of `Nc1nc2c(ncn2[C@@H]2O[C@H](COP(=O)(O)OP(=O)(O)OP(=O)(O)O)[C@@H](O)[C@H]2O)c(=O)[nH]1` [GTP], the “effect of addition to incubations on [³H]DAMGO binding” value [2] is reported as “reduced”.
In the case of `CN1CC[C@]23CCCC[C@H]2[C@H]1Cc1ccc(O)cc13` [levorphan], the “potency in displacing [³H]DAMGO binding relative to the pharmacologically inactive isomer” value [4] is reported as “substantially greater potency”.
Work on “[biotinyl-Lys³²]b-endorphin [biotinyl-b-endorphin (F2)]” yielded an IC50 [1, 5] of 5 nM.
`CCC12CCN(CC3(O)CC3)C(Cc3ccc(O)cc31)C2(C)C` (centres unmarked) [bromazocino] was tested, and the “potency in displacing binding” value [4] was “high potency”.
ethylketocyclazocino was tested, and the “potency in displacing binding” value [4] was “high potency”.

Source: patent publication EP0612845A2 (priority 1993, dated 1994)
